pIC50: −log10 of the molar value. Structures can show the parent of a compound that is named as a salt.

This assay deals with T1, recombinant human baculovirus-expressed GST-tagged FASN (Homo sapiens, UniProt P49327).
T1 construct: GST
T1 sequence (P49327 whole entry): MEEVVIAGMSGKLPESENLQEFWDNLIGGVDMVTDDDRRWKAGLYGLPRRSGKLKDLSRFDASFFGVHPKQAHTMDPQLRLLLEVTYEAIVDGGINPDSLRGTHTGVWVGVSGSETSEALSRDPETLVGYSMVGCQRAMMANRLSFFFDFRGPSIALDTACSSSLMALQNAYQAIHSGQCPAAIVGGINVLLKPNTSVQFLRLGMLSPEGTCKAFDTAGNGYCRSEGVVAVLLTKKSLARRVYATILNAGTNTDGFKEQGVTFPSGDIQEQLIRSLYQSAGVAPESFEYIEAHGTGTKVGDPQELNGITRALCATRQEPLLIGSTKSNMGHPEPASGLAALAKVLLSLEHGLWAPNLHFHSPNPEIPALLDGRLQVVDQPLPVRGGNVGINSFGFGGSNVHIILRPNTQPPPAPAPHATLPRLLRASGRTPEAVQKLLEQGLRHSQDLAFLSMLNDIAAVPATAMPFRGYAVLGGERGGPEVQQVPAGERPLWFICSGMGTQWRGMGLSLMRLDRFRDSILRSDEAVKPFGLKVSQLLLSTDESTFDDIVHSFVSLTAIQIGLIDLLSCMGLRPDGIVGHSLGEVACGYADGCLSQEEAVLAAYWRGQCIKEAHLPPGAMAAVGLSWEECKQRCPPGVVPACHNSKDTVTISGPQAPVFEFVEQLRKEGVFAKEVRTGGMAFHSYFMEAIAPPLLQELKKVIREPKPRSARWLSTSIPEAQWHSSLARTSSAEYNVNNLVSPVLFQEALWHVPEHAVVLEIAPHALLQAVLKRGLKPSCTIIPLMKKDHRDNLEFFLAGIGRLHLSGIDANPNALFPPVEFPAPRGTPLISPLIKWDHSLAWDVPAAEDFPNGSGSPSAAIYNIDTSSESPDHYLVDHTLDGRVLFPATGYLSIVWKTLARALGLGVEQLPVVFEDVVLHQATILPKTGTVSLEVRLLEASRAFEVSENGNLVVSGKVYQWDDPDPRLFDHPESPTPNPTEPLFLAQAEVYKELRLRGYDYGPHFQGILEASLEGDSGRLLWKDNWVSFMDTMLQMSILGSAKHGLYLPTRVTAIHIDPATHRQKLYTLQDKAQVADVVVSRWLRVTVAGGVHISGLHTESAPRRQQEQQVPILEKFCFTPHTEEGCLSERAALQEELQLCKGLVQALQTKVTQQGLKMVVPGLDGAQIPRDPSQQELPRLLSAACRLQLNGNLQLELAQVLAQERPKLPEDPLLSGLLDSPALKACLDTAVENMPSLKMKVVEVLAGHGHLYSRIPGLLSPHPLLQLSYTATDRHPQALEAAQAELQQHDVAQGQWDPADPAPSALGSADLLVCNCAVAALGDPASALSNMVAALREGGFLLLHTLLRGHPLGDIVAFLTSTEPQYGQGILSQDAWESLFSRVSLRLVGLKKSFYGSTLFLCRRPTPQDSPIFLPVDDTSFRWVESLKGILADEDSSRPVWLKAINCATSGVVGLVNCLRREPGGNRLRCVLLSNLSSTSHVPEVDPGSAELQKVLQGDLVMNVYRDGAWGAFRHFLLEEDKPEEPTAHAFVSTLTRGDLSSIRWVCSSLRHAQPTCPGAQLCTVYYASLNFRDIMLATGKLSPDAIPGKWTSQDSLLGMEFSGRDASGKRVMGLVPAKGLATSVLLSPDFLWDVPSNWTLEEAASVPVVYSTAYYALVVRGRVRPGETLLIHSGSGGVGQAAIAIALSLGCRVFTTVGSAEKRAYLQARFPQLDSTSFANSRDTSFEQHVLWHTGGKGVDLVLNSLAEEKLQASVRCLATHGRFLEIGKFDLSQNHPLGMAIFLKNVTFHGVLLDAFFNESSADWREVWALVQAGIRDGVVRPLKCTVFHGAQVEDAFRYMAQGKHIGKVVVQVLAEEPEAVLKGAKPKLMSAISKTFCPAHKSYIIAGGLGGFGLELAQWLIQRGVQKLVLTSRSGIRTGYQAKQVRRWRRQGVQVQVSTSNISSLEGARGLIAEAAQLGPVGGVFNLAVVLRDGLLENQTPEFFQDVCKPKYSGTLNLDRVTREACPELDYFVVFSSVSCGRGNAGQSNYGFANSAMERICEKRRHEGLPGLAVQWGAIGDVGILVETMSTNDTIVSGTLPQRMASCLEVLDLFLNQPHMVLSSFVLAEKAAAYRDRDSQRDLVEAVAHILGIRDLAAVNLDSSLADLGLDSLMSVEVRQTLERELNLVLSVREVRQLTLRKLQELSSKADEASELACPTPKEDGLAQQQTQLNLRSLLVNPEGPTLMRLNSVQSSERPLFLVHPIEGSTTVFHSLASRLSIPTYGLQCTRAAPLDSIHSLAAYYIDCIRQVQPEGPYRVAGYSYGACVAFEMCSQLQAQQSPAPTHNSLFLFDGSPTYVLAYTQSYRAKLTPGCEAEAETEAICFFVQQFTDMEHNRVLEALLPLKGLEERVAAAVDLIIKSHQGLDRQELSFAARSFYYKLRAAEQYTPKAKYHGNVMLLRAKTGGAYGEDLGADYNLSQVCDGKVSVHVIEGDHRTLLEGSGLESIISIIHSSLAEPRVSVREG
Nature of the assay: FASN enzyme activity assay, fluorescence-based detection of CoA with CPM. Format: biochemical. Conditions: 5 nM FASN, 150 μM NADPH, 10 μM acetyl-CoA, 25 μM malonyl-CoA, 90 minutes incubation; read-out: IC50 data for Compounds of Formulae I-V/V(a): Activity. The gist of the method: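 CoA product reacted with thiol-reactive CPM (diluted to 50 μM in 70% ethanol), read at 390/530 nm after 30 min. Preceding reaction: 90 min, 5 nM recombinant GST-FASN, 150 μM NADPH, 10 μM acetyl-CoA, 25 μM malonyl-CoA, pH 7.5 HEPES, 0.5% DMSO. IC50s fitted by nonlinear sigmoidal regression.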
Regarding `CONC(=O)N1CCC(Oc2ccc(-c3cnc4ccccc4c3C)cc2)CC1` [Example 82, 4-[4-(4-Methylquinolin-3-yl)-phenoxy]-piperidine-1-carboxylic acid methoxyamide], the pIC50 is 7.00 to 9.00.

For `CON(C)C(=O)N1CCC(Oc2ccc(-c3cnc4ccccc4c3C)cc2)CC1` [Example 83, 4-[4-(4-Methylquinolin-3-yl)-phenoxy]-piperidine-1-carboxylic acid methoxymethyl-amide], the pIC50 was 7.00 to 9.00.

Consider `CCNC(=O)N1CCC(Oc2ccc(-c3cnc4ccccc4c3C)cc2)CC1` [Example 84, 4-[4-(4-Methylquinolin-3-yl)-phenoxy]-piperidine-1-carboxylic acid ethylamide], for which the pIC50 was 7.00 to 9.00.

Regarding `CNC(=O)N1CCC(Oc2ccc(-c3ccc4cccnc4c3OC)cc2)CC1` [Example 85, 4-[4-(8-Methoxyquinolin-7-yl)-phenoxy]-piperidine-1-carboxylic acid methylamide], the pIC50 was 6.00 to 7.00.

In the case of `CCNC(=O)N1CCC(Oc2ccc(-c3ccc4cccnc4c3OC)cc2)CC1` [Example 86, 4-[4-(8-Methoxyquinolin-7-yl)-phenoxy]-piperidine-1-carboxylic acid ethylamide], the pIC50 was 7.00 to 9.00.

Consider `Cc1c(-c2ccc(OC3CCN(C(=O)NO)CC3)cc2)cnc2ccccc12` [Example 87, 4-[4-(4-Methylquinolin-3-yl)-phenoxy]-piperidine-1-carboxylic acid hydroxyamide], for which the pIC50 was 5.00 to 6.00.

On to `CCNC(=O)N1CCC(Oc2ccc(-c3ccc4cccnc4c3C)cc2)CC1` [Example 88, N-ethyl-4-[4-(8-methyl-7-quinolyl)phenoxy]piperidine-1-carboxamide], for which the pIC50 is 7.00 to 9.00.

On to `Cc1c(-c2ccc(OC3CCN(C(=O)N(C)C)CC3)cc2)ccc2cccnc12` [Example 89, N,N-dimethyl-4-[4-(8-methyl-7-quinolyl)phenoxy]piperidine-1-carboxamide], for which the pIC50 is 7.00 to 9.00.

Consider `CCOC(=O)N1CCC(Oc2ccc(-c3ccc4cccnc4c3C)cc2)CC1` [Example 90, Ethyl 4-[4-(8-methyl-7-quinolyl)phenoxy]piperidine-1-carboxylate], for which the pIC50 was 6.00 to 7.00.

Consider `CONC(=O)N1CCC(Oc2ccc(-c3ccc4cccnc4c3C)cc2)CC1` [Example 91, N-methoxy-4-[4-(8-methyl-7-quinolyl)phenoxy]piperidine-1-carboxamide], for which the pIC50 is 7.00 to 9.00.

For `Cc1c(-c2ccc(OC3CCN(C(=O)NC(C)C)CC3)cc2)ccc2cccnc12` [Example 92, N-Isopropyl-4-[4-(8-methyl-7-quinolyl)phenoxy]piperidine-1-carboxamide], the pIC50 was 5.00 to 6.00.

Turning to `CCONC(=O)N1CCC(Oc2ccc(-c3ccc4cccnc4c3C)cc2)CC1` [Example 93, N-ethoxy-4-[4-(8-methyl-7-quinolyl)phenoxy]piperidine-1-carboxamide], the pIC50 is 7.00 to 9.00.

In the case of `Cc1c(-c2ccc(OC3CCN(C(=O)N4CCCC4)CC3)cc2)ccc2cccnc12` [Example 94, [4-[4-(8-methyl-7-quinolyl)phenoxy]-1-piperidyl]-pyrrolidin-1-yl-methanone], the pIC50 is 7.00 to 9.00.

Take `CNC(=O)N1CCC(Oc2ccc(-c3ccc4cccnc4c3C)cc2)CC1` [Example 95, N-methyl-4-[4-(8-methyl-7-quinolyl)phenoxy]piperidine-1-carboxamide]: the pIC50 was 7.00 to 9.00.

Regarding `CCCNC(=O)N1CCC(Oc2ccc(-c3ccc4cccnc4c3C)cc2)CC1` [Example 96, 4-[4-(8-methyl-7-quinolyl)phenoxy]-N-propyl-piperidine-1-carboxamide], the pIC50 is 7.00 to 9.00.

Turning to `Cc1c(-c2ccc(OC3CCN(C(N)=O)CC3)cc2)ccc2cccnc12` [Example 97, 4-[4-(8-methyl-7-quinolyl)phenoxy]piperidine-1-carboxamide], the pIC50 was 6.00 to 7.00.

For `Cc1c(-c2ccc(OC3CCN(C(=O)N4CCCCC4)CC3)cc2)ccc2cccnc12` [Example 98, [4-[4-(8-methyl-7-quinolyl)phenoxy]-1-piperidyl]-(1-piperidyl)methanone], the pIC50 is 7.00 to 9.00.

In the case of `Cc1c(-c2ccc(OC3CCN(C(=O)N4CCOCC4)CC3)cc2)ccc2cccnc12` [Example 99, [4-[4-(8-methyl-7-quinolyl)phenoxy]-1-piperidyl]-morpholino-methanone], the pIC50 was 6.00 to 7.00.

For the compound `O=C(C1CC1)N1CCC(Oc2ccc(-c3cnc4ccccc4c3)cc2)CC1` [Example 100, Cyclopropyl-[4-(4-quinolin-3-yl-phenoxy)-piperidin-1-yl]-methanone,HCl], the pIC50 was 7.00 to 9.00.

For `O=C(C1CCC1)N1CCC(Oc2ccc(-c3cnc4ccccc4c3)cc2)CC1` [Example 101, Cyclobutyl-[4-(4-quinolin-3-yl-phenoxy)-piperidin-1-yl]-methanone,HCl], the pIC50 is 7.00 to 9.00.

Regarding `O=C(C1CCCC1)N1CCC(Oc2ccc(-c3cnc4ccccc4c3)cc2)CC1` [Example 102, Cyclopentyl-[4-(4-quinolin-3-yl-phenoxy)-piperidin-1-yl]-methanone, 2HCl], the pIC50 is 6.00 to 7.00.

`O=C([C@H]1CCCO1)N1CCC(Oc2ccc(-c3cnc4ccccc4c3)cc2)CC1` [Example 103, [4-(4-Quinolin-3-yl-phenoxy)-piperidin-1-yl]-(R)-tetrahydrofuran-2-yl-methanone, HCl]: the pIC50 was 7.00 to 9.00.

Turning to `O=C([C@@H]1CCCO1)N1CCC(Oc2ccc(-c3cnc4ccccc4c3)cc2)CC1` [Example 104, [4-(4-Quinolin-3-yl-phenoxy)-piperidin-1-yl]-(S)-tetrahydrofuran-2-yl-methanone, HCl], the pIC50 was 7.00 to 9.00.

Regarding `COCC(=O)N1CCC(Oc2ccc(-c3cnc4ccccc4c3)cc2)CC1` [Example 105], the pIC50 was 7.00 to 9.00.

Turning to `O=C(C1CCCCO1)N1CCC(Oc2ccc(-c3cnc4ccccc4c3)cc2)CC1` (stereo not shown) [Example 106, [4-(4-Quinolin-3-yl-phenoxy)-piperidin-1-yl]-(tetrahydropyran-2-yl)-methanone, 2HCl], the pIC50 is 6.00 to 7.00.

For `O=C(C1CCOC1)N1CCC(Oc2ccc(-c3cnc4ccccc4c3)cc2)CC1` (stereo not shown) [Example 107, [4-(4-Quinolin-3-yl-phenoxyl)-piperidin-1-yl]-(tetrahydrofuran-3-yl)-methanone, 2HCl], the pIC50 is 5.00 to 6.00.

For the compound `CO[C@H](C)C(=O)N1CCC(Oc2ccc(-c3cnc4ccccc4c3)cc2)CC1` [Example 108, (R)-2-Methoxy-1-[4-(4-quinolin-3-yl-phenoxy)-piperidin-1-yl]-propan-1-one, 2HCl], the pIC50 is 6.00 to 7.00.

Consider `CO[C@@H](C)C(=O)N1CCC(Oc2ccc(-c3cnc4ccccc4c3)cc2)CC1` [Example 109, (S)-2-Methoxy-1-[4-(4-quinolin-3-yl-phenoxy)-piperidin-1-yl]-propan-1-one, 2HCl], for which the pIC50 was 5.00 to 6.00.

As to `O=C(CO)N1CCC(Oc2ccc(-c3cnc4ccccc4c3)cc2)CC1` [Example 110, 2-Hydroxy-1-[4-(4-quinolin-3-yl-phenoxy)-piperidin-1-yl]-ethanone, 2HCl], the pIC50 is 5.00 to 6.00.

With `O=C(c1ccco1)N1CCC(Oc2ccc(-c3cnc4ccccc4c3)cc2)CC1` [Example 111, HCl], the pIC50 is 5.00 to 6.00.

As to `CC(=O)N1CCC(Oc2ccc(-c3cnc4ccccc4c3)cc2)CC1` [Example 112, 1-[4-(4-Quinolin-3-yl-phenoxy)-piperidin-1-yl]-ethanone, HCl], the pIC50 was 6.00 to 7.00.

On to `CC(C)C(=O)N1CCC(Oc2ccc(-c3cnc4ccccc4c3)cc2)CC1` [Example 113, 2-Methyl-1-[4-(4-quinolin-3-yl-phenoxy)-piperidin-1-yl]-propan-1-one, HCl], for which the pIC50 is 6.00 to 7.00.

Turning to `CC(C)(C)C(=O)N1CCC(Oc2ccc(-c3cnc4ccccc4c3)cc2)CC1` [Example 114, 2,2-Dimethyl-1-[4-(4-quinolin-3-yl-phenoxy)-piperidin-1-yl]-propan-1-one, HCl], the pIC50 is 6.00 to 7.00.

For `CC1(C(=O)N2CCC(Oc3ccc(-c4cnc5ccccc5c4)cc3)CC2)CCCO1` (stereo not shown) [Example 115, (2-Methyltetrahydrofuran-2-yl)-[4-(4-quinolin-3-yl-phenoxy)-piperidin-1-yl]-methanone, HCl], the pIC50 is 6.00 to 7.00.

Regarding `CC1(C(=O)N2CCC(Oc3ccc(-c4cnc5ccccc5c4)cc3)CC2)OCCO1` [Example 116, (2-Methyl-1,3-dioxolan-2-yl)-[4-(4-quinolin-3-yl-phenoxy)-piperidin-1-yl]-methanone, HCl], the pIC50 was 7.00 to 9.00.

Consider `CS(=O)(=O)CC(=O)N1CCC(Oc2ccc(-c3cnc4ccccc4c3)cc2)CC1` [Example 117, 2-Methanesulfonyl-1-[4-(4-quinolin-3-yl-phenoxy)-piperidin-1-yl]-ethanone, HCl], for which the pIC50 was 5.00 to 6.00.

In the case of `O=C(C1CCCS1(=O)=O)N1CCC(Oc2ccc(-c3cnc4ccccc4c3)cc2)CC1` (stereo not shown) [Example 118, (1,1-Dioxidotetrahydrothiophen-2-yl)(4-(4-(quinolin-3-yl)phenoxy)piperidin-1-yl)methanone, HCl], the pIC50 was 5.00 to 6.00.

On to `O=C(C1CC(F)(F)C1)N1CCC(Oc2ccc(-c3cnc4ccccc4c3)cc2)CC1` [Example 119, (3,3-Difluorocyclobutyl)-[4-(4-quinolin-3-yl-phenoxy)-piperidin-1-yl]-methanone], for which the pIC50 was 5.00 to 6.00.

As to `O=C1CC[C@H](C(=O)N2CCC(Oc3ccc(-c4cnc5ccccc5c4)cc3)CC2)O1` [Example 120, (R)-5-[4-(4-Quinolin-3-yl-phenoxy)-piperidine-1-carbonyl]-dihydrofuran-2-one, HCl], the pIC50 was 7.00 to 9.00.

Regarding `Cc1ccoc1C(=O)N1CCC(Oc2ccc(-c3cnc4ccccc4c3)cc2)CC1` [Example 121, (3-Methylfuran-2-yl)-[4-(4-quinolin-3-yl-phenoxy)-piperidin-1-yl]-methanone, HCl], the pIC50 was 5.00 to 6.00.

(Values after patent US9902696B2, “1,4-substituted piperidine derivatives” (Cephalon, Inc., priority 2015, dated 2018).)
